Values quoted from earlier work, collected in US12691078B2, “Stable compositions of functional ingredients and methods of making the same” (Nulixir Inc., priority 2021, dated 2026).

Assays:
[1] = reference solvents n-octanol and water; pH=7 unless stated otherwise; mostly given as approximate (~=)
[2] = ethanol extraction of Golden Seal

solubility in ethanol as a function of water content [2] | Compound | logP [1]
– | CC(C)=CCC[C@](C)(O[C@@H]1O[C@H](CO[C@@H]2O[C@H](CO)[C@@H](O)[C@H](O)[C@H]2O)[C@@H](O)[C@H](O)[C@H]1O)[C@H]1CC[C@]2(C)[C@@H]1[C@H](O)C[C@@H]1[C@@]3(C)CC[C@H](O[C@@H]4O[C@H](CO)[C@@H](O)[C@H](O)[C@H]4O[C@@H]4O[C@H](CO)[C@@H](O)[C@H](O)[C@H]4O)C(C)(C)[C@@H]3CC[C@]12C [ginsenoside rb1] | ~−1
– | tortuosomine | ~3
– | COc1cc(/C=C/c2ccccc2)oc(=O)c1 [5,6-dehydrokawain] | ~2.9
– | COc1cc(/C=C\c2ccc(OC)c(O)c2)oc(=O)c1 [11-hydroxyyangonin] | ~2.2
– | CC1=C(CO)C(=O)O[C@@H]([C@@H](C)[C@H]2CC[C@H]3[C@@H]4C[C@H](Cl)[C@]5(O)[C@@H](O)C=CC(=O)[C@]5(C)[C@H]4CC[C@]23C)C1 [6a-chloro-5b-hydroxywithaferin A] | ~3.2
– | COc1ccc([C@@]23C=CC(=O)C[C@@H]2N(C)CC3)cc1OC [mesembrenone] | ~1.3
– | COc1ccc(CCc2cc(OC)cc(=O)o2)cc1 [7,8-dihydroyangonin] | ~2.9
– | CC(C)=C[C@@H]1CO[C@]23C[C@]4(CO2)[C@H](CC[C@@H]2[C@@]5(C)CC[C@H](O[C@@H]6OC[C@H](O)[C@H](O[C@@H]7O[C@H](CO)[C@@H](O)[C@H](O)[C@H]7O)[C@H]6O[C@@H]6O[C@@H](CO)[C@H](O)[C@H]6O)C(C)(C)[C@@H]5CC[C@]24C)[C@H]3[C@@]1(C)O [bacopasaponin C] | ~2
– | COc1nc2c(c(=O)n1C)n(C)c(=O)n2C [methylliberine] | ~−0.083
– | COc1cc2c(c(OC)c1OC)-c1c(cc(OC)c(OC)c1OC)C[C@](C)(O)[C@@H](C)C2 [(+)-schisandrin] | ~5
– | (R)-kawain | ~2.7
– | N#C[C@@]1(O[C@@H]2O[C@H](CO)[C@@H](O)[C@H](O)[C@H]2O)C=C[C@@H](O)C1 [tetraphyllin B] | ~−2.5
– | COc1c2c(cc3c1-c1c(cc4c(c1OC)OCO4)C[C@H](C)[C@H](C)C3)OCO2 [(−)-schisandrin C] | ~3.5
– | COC1=CC(=O)OC(/C=C/c2ccc(OC)cc2)C1 (stereo not drawn) [5,6-dihydroyangonin] | ~2.5
– | hericerin | ~6.4
– | COC1=CC(=O)O[C@@H](CCc2ccc3c(c2)OCO3)C1 [7,8-dihydromethysticin] | ~2.2
– | schisandroside C | ~1.6
– | COc1cc2c(c(OC)c1OC)-c1c(cc(OC)c(OC)c1OC)C[C@](C)(O)[C@@H](C)C2 [schisandrol A] | ~3.4
– | herinacine A | ~2.5
– | COc1ccc([C@@]23CCC(=O)C[C@@H]2N(C)CC3)cc1OC [mesembrine] | ~1.5
– | COc1cc([C@H]2Oc3cc(O)c4c(=O)c(O)c(-c5ccc(O)cc5)oc4c3O[C@@H]2CO)ccc1O [rhodiolin] | ~2
– | CC(C)=CCC[C@](C)(O[C@@H]1O[C@H](CO)[C@@H](O)[C@H](O)[C@H]1O)[C@H]1CC[C@]2(C)[C@@H]1[C@H](O)C[C@@H]1[C@@]3(C)CC[C@H](O)C(C)(C)[C@@H]3[C@@H](O[C@@H]3O[C@H](CO)[C@@H](O)[C@H](O)[C@H]3O)C[C@]12C [ginsenoside rg1] | ~0.8
– | COc1ccc(C23C=CC(O)CC2N(C)CC3)cc1OC (stereo not drawn) [mesembrenol] | ~2.4
decreases rapidly with water content | COc1ccc2cc3[n+](cc2c1OC)CCc1cc2c(cc1-3)OCO2 [berberine] | –
– | bacopaside B | ~2.8
– | CC(C)=C[C@H]1C[C@](C)(O)[C@@H]2[C@H]3CC[C@@H]4[C@@]5(C)CC[C@H](O[C@@H]6OC[C@H](O)[C@H](O[C@@H]7O[C@H](CO)[C@@H](O)[C@H](O)[C@H]7O)[C@H]6O[C@@H]6O[C@@H](CO)[C@H](O)[C@H]6O)C(C)(C)[C@@H]5CC[C@@]4(C)[C@@]34CO[C@@]2(C4)O1 [bacopaside X] | ~2.2
– | CC(=O)OC1C=CC(=O)N(C(=O)CCc2ccccc2)C1 (stereo not drawn) [pipermethystine] | ~1.8
– | CC(C)=C[C@H]1C[C@](C)(O)[C@H]2[C@H]3CC[C@@H]4[C@@]5(C)CC[C@H](O[C@@H]6O[C@H](CO)[C@@H](O)[C@H](O[C@@H]7O[C@H](CO)[C@@H](O)[C@H](O)[C@H]7O)[C@H]6O[C@@H]6O[C@@H](CO)[C@H](O)[C@H]6O)C(C)(C)[C@@H]5CC[C@@]4(C)[C@@]34CO[C@@]2(C4)O1 [bacoside A3] | ~2.1
– | COc1cc2c(c(OC)c1OC)-c1c(cc3c(c1OC)OCO3)CC(C)C(C)C2 (single isomer, unassigned; (-)) [(−)-schisandrin B] | ~4
– | COc1cc2c(c(OC)c1OC)-c1c(cc(OC)c(OC)c1OC)C[C@H](C)[C@H](C)C2 [(−)-schisandrin A] | ~3.6
